Reference: ChEMBL document CHEMBL5154935, “Design, Synthesis, and Biological Evaluation of Novel Evodiamine Derivatives as Potential Antihepatocellular Carcinoma Agents” (J Med Chem, 2022)
The source made the active and inactive calls. No cut-off for these calls is given here.

Experiments:
Huh-7 [1] = assay: Induction of mitochondrial membrane potential changes in human Huh-7 cells assessed as decrease in TMRE positive cells at 80 nM incubated for 24 hrs by TMRE staining based flow cytometry; assay type: functional, cell-based
HCCLM9 = assay: Antiproliferative activity against human HCCLM9 cells treated for 72 hrs by MTT assay; assay type: functional, cell-based; conditions: HCCLM9, 72 h
[2] = molecular target: T1, DNA topoisomerase 1 (Homo sapiens) (UniProt P11387); assay: Inhibition of Top1 (unknown origin) assessed as inhibition of relaxation of supercoiled pBR322 plasmid DNA at 50 uM incubated for 25 mins by ethidium bromide staining based agarose gel electrophoresis analysis relative to control
T1 sequence (whole entry): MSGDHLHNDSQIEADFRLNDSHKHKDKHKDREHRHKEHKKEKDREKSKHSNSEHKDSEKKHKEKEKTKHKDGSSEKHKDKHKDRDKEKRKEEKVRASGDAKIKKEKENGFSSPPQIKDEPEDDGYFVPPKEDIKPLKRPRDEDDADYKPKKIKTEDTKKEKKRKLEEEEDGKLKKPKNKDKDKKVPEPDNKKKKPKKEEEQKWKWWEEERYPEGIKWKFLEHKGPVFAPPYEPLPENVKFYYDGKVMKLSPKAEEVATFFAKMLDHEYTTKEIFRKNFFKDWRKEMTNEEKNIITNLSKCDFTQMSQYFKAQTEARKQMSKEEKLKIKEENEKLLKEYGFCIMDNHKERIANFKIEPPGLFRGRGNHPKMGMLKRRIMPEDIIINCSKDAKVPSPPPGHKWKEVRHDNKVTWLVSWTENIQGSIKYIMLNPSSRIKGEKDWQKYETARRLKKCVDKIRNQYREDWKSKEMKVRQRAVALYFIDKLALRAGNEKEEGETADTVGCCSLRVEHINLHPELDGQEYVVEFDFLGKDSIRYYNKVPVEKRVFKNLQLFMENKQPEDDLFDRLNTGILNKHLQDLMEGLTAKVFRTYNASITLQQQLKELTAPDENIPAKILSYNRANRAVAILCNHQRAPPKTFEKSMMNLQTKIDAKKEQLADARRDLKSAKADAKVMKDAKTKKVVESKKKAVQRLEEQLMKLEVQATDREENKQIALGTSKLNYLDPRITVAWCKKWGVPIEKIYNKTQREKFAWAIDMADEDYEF

[3] = molecular target: DNA topoisomerase 2-alpha (Homo sapiens) (UniProt P11388); assay: Inhibition of human Top2-alpha expressed in baculovirus assessed as inhibition of relaxation of supercoiled pBR322 plasmid DNA at 100 uM incubated for 30 mins in presence of ATP by ethidium bromide staining based agarose gel electrophoresis analysis relative to control
Sequence of DNA topoisomerase 2-alpha (Homo sapiens) (P11388 whole entry): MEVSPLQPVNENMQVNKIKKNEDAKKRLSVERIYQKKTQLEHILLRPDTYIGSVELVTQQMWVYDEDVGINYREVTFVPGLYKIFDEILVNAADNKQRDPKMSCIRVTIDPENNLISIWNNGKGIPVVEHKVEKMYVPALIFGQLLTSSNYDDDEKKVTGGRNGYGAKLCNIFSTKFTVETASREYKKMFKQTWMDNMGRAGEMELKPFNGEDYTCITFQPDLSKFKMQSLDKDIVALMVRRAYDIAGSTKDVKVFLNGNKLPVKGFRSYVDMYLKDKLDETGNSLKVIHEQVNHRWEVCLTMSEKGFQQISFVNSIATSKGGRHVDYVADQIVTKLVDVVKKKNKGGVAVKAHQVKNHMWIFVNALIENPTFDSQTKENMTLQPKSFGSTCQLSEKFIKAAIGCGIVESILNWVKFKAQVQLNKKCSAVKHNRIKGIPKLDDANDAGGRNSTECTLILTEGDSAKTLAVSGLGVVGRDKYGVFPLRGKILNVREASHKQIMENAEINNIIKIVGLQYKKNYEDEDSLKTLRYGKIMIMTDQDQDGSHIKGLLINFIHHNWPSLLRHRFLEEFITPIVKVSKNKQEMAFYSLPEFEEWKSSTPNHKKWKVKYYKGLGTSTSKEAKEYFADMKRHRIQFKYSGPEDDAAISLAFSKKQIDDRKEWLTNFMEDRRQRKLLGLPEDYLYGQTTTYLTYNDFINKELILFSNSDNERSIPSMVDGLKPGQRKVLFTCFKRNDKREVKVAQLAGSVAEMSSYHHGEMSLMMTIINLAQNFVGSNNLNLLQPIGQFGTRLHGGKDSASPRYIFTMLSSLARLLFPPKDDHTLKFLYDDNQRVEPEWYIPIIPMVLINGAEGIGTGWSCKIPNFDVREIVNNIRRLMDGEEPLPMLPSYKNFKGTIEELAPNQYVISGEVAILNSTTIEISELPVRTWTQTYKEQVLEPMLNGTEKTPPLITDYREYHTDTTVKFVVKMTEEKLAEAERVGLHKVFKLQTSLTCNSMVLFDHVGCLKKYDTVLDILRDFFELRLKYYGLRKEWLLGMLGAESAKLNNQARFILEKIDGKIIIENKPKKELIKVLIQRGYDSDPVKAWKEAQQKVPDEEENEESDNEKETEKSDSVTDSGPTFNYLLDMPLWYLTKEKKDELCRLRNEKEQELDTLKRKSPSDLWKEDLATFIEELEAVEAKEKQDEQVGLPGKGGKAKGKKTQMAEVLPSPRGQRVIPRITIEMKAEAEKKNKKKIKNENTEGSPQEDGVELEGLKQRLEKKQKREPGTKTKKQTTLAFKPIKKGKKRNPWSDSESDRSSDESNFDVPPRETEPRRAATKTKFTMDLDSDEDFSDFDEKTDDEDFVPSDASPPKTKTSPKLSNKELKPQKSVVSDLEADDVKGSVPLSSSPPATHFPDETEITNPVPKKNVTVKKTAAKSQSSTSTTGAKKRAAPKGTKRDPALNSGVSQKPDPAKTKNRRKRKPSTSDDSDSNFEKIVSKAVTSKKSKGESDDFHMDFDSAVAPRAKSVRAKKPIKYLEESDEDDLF

Huh-7 [4] = assay: Antiproliferative activity against human Huh-7 cells assessed as inhibition of cell viability by MTT assay; assay type: functional, cell-based; conditions: time 24-72 hrs, TDE = time-dependent effect
SK-HEP1 [5] = assay: Antiproliferative activity against human SK-Hep1 cells assessed as inhibition of cell viability by MTT assay; assay type: functional, cell-based; conditions: time 24-72 hrs, TDE = time-dependent effect
HCC = assay: Inhibition of cell proliferation of human HCC cells treated for 24 hrs by EdU staining based fluorescence microscopy assay; assay type: functional; conditions: dose 3-18 nM, DDE = dose-dependent effect
SK-HEP1 [6] = assay: Induction of cell cycle arrest in human SK-Hep1 cells assessed as accumulation at S phase at 80 nM treated for 24 hrs by PI staining based flow cytometry (reference value: 24.98 %); assay type: functional
Huh-7 [7] = assay: Induction of cell cycle arrest in human Huh-7 cells assessed as accumulation at G1 phase at 10 nM treated for 24 hrs by PI staining based flow cytometry (reference value: 60.77 %); assay type: functional
SK-HEP1 [8] = assay: Induction of cell cycle arrest in human SK-Hep1 cells assessed as accumulation at S phase at 40 nM treated for 24 hrs by PI staining based flow cytometry (reference value: 24.98 %); assay type: functional
SK-HEP1 [9] = assay: Induction of cell cycle arrest in human SK-Hep1 cells assessed as accumulation at G2 phase at 10 nM treated for 24 hrs by PI staining based flow cytometry (reference value: 16.55 %); assay type: functional
SK-HEP1 [10] = assay: Induction of cell cycle arrest in human SK-Hep1 cells assessed as accumulation at S phase at 10 nM treated for 24 hrs by PI staining based flow cytometry (reference value: 24.98 %); assay type: functional
Huh-7 [11] = assay: Induction of apoptosis in human Huh-7 cells assessed as change in cell membrane permeability by measuring blue fluorescence incubated for 24 hrs by Hoechst staining based microscopy; assay type: functional; conditions: dose 12-60 nM, DDE = dose-dependent effect
Huh-7 [12] = assay: Induction of apoptosis in human Huh-7 cells assessed as cell shrinkage incubated for 24 hrs by Giemsa staining based microscopy; assay type: functional; conditions: dose 12-60 nM, DDE = dose-dependent effect
Huh-7 [13] = assay: Induction of apoptosis in human Huh-7 cells assessed as chromatin agglutination incubated for 24 hrs by Giemsa staining based microscopy; assay type: functional, cell-based; conditions: dose 12-60 nM, DDE = dose-dependent effect
SK-HEP1 [14] = assay: Induction of apoptosis in human SK-Hep1 cells assessed as chromatin agglutination incubated for 24 hrs by Giemsa staining based microscopy; assay type: functional, cell-based; conditions: dose 12-60 nM, DDE = dose-dependent effect
Huh-7 [15] = assay: Induction of apoptosis in human Huh-7 cells assessed as early apoptotic cells at 10 nM incubated for 24 hrs by annexin V-FITC/PI staining flow cytometry (reference value: 0.33 %); assay type: functional
Huh-7 [16] = assay: Induction of apoptosis in human Huh-7 cells assessed as early apoptotic cells at 80 nM incubated for 24 hrs by annexin V-FITC/PI staining flow cytometry (reference value: 0.33 %); assay type: functional
SK-HEP1 [17] = assay: Induction of apoptosis in human SK-Hep1 cells assessed as late apoptotic cells at 10 nM incubated for 24 hrs by annexin V-FITC/PI staining flow cytometry (reference value: 1.13 %); assay type: functional
SK-HEP1 [18] = assay: Induction of apoptosis in human SK-Hep1 cells assessed as viable cells at 40 nM incubated for 24 hrs by annexin V-FITC/PI staining flow cytometry (reference value: 97.8 %); assay type: functional; conditions: read-out: Activity
SK-HEP1 [19] = assay: Induction of apoptosis in human SK-Hep1 cells assessed as viable cells at 80 nM incubated for 24 hrs by annexin V-FITC/PI staining flow cytometry (reference value: 97.8 %); assay type: functional; conditions: read-out: Activity
SK-HEP1 [20] = assay: Induction of apoptosis in human SK-Hep1 cells assessed as early apoptotic cells at 80 nM incubated for 24 hrs by annexin V-FITC/PI staining flow cytometry (reference value: 0.30 %); assay type: functional
Huh-7 [21] = assay: Inhibition of cell migration in human Huh-7 cells incubated for 24 hrs by scratch wound healing assay; assay type: functional, cell-based; conditions: dose 3-18 nM, DDE = dose-dependent effect
Huh-7 [22] = assay: Inhibition of cell migration in human Huh-7 cells at 3 to 18 nM incubated for 24 hrs by crystal violet staining based transwell assay; assay type: functional; conditions: dose 3-18 nM
SK-HEP1 [23] = assay: Inhibition of cell migration in human SK-HEP1 cells at 3 to 18 nM incubated for 24 hrs by crystal violet staining based transwell assay; assay type: functional; conditions: dose 3-18 nM
[24] = Induction of apoptosis in rat HSC-T6 cells assessed as necrotic cells at 80 nM pretreated with TGFbeta-1 for 1 day followed by compound addition and measured after 24 hrs by flow cytometry (reference value: 0.56 %); assay type: functional
SMMC-7721 = assay: Antiproliferative activity against human SMMC-7721 cells treated for 72 hrs by MTT assay; assay type: functional, cell-based; conditions: SMMC-7721, 72 h
Huh-7 [25] = assay: Inhibition of cell invasion in human Huh-7 cells at 3 to 18 nM incubated for 24 hrs by matrigel based assay; assay type: functional; conditions: dose 3-18 nM

Row | SMILES | Activity (Huh-7 [1]) | IC50 (HCCLM9) [nM] | inhibition [2] [%] | inhibition [3] [%] | Activity (Huh-7 [4]) | Activity (SK-HEP1 [5]) | inhibition (HCC) | Activity (SK-HEP1 [6]) [%] | Activity (Huh-7 [7]) [%] | Activity (SK-HEP1 [8]) [%] | Activity (SK-HEP1 [9]) [%] | Activity (SK-HEP1 [10]) [%] | Activity (Huh-7 [11]) | Activity (Huh-7 [12]) | Activity (Huh-7 [13]) | Activity (SK-HEP1 [14]) | Activity (Huh-7 [15]) [%] | Activity (Huh-7 [16]) [%] | Activity (SK-HEP1 [17]) [%] | viability at 0.04 µM (SK-HEP1 [18]) [%] | other results
1 | CC(=O)Oc1ccc2[nH]c3c(c2c1)CCN1C(=O)c2cc(F)cc(F)c2N(c2cccc(F)c2)C31 (stereo unspecified) | Active | 100 | 94 | 63.7 | Tde | Tde | Dde | 3.88 | 51.9 | 4.18 | 18.08 | 19.4 | Dde | Dde | Dde | Dde | 0.63 | 1.1 | 7.45 | 75.9 | viability at 0.08 µM (SK-HEP1 [19]): 84%; Activity (SK-HEP1 [20]): 13.5%; inhibition (Huh-7 [21]): Dde; inhibition (Huh-7 [22]): Active; inhibition (SK-HEP1 [23]): Active; Activity [24]: 4.44%; IC50 (SMMC-7721): 80 nM; inhibition (Huh-7 [25]): Active
2 | O=C1c2cc(F)cc(F)c2N(c2cccc(F)c2)C2c3[nH]c4ccc(O)cc4c3CCN12 (stereo unspecified) | Active | 110 | 92.5 | 67 | Tde | Tde | Dde | 4.5 | 46.78 | 4.11 | 26.65 | 18.42 | Dde | Dde | Dde | Dde | 0.73 | 1.71 | 3.83 | 74.7 | viability at 0.08 µM (SK-HEP1 [19]): 73.4%; Activity (SK-HEP1 [20]): 0.75%; inhibition (Huh-7 [21]): Dde; inhibition (Huh-7 [22]): Active; inhibition (SK-HEP1 [23]): Active; Activity [24]: 3.62%; IC50 (SMMC-7721): 90 nM; inhibition (Huh-7 [25]): Active
